Legend:
[1] = test system: collagen induced arthritis (CIA); experiment: CIA model, arthritis index (AI) score; format: in vivo, DBA/1J mice; conditions: for progression of disease, as indicated by AI scores: two treatments of 33 nmoles in ICFA adjuvant, Enbrel 3 mg/kG daily for the first 14 days; for effectiveness in the murine CIA model of RA relative to SEQ ID NO. 99: studies 1-5 and FIGS. 1-4
Procedure: The following five studies are of CEL-2000 therapeutic vaccine for collagen induced arthritis (CIA) where the first step was to identify a good animal model for testing the vaccine, which is the collagen induced arthritis (CIA) model in young (6-7) week old male DBA/1J mice. These mice received 2 injections of bovine collagen the first in complete Freund's adjuvant (CFA) on day 0 and then 3 weeks later on day 21, in Incomplete CFA. After the second collagen injection, the mice were evaluated daily for any joint swelling or redness. Each of the paws was scored on a 4 point scale (arthritis index Arthritis Index (AI)) with respect to the number of digits with symptoms and the thickness of the paw measured, at least 3-4 times a week. Each mouse was weighed weekly.
The first study is the CIA model CEL-2000 therapeutic vaccination conjugate specificity effect on AI scores (study 4.1 see FIG. 1 and legend). When significant disease is noted, usually about day 28, the mice are grouped (n=8) with a range of scores between 1 and 6 and group mean of 2.5 to 3. At this point the therapy begins according to protocol. Controls include groups with induced disease but no therapy and groups of healthy mice without induced disease. A therapy control of Enbrel (3 mg/kG daily) was included. In this study (FIG. 1), mice received two treatments of 33 nmoles (for CEL-2000 equivalent to 4.8 mg/kG) of CEL-2000, (the same dose as used for the L.E.A.P.S. HSV vaccines), or other conjugates of the same collagen peptide used in CEL-2000 using the same ICBLs as in the HSV or EAM systems for comparison using a GMP grade ICFA adjuvant.
AI scores are evaluations on a scale of 0=normal to 4=maximal effect of joint thickening, redness, immobilization of joints in a digit or total paw for each of the 4 paws in the CIA mouse model of rheumatoid arthritis.
Treatment started when group score was 3.5. This was done to have all groups starting with same score, as opposed to the range between […] seen in the first study. The same dose of Enbrel as was used in the first study but was given every other day for the entire study period of 28 days.

[2] = test system: collagen induced arthritis (CIA); experiment: CIA model, histopathology of right rear feet; format: in vivo, DBA/1J mice; conditions: for disease pathology compared statistically with untreated CIA mice: Enbrel: 14 days after cessation of therapy, 3×CEL-2000: 3 weeks after immunization; for histopathology: bone resorption / histopathology: cartilage damage / histopathology: inflammation / histopathology: pannus: hind paw and ankle, Enbrel for 14 days, CEL-2000 100 nmol on days 0 and 7
Text: The fourth study is for the CIA model CEL-2000 therapeutic vaccination; histopathology (study 4.4 see FIG. 4 and legend). At the termination of the experiments the animals were euthanized, the right rear feet were collected and stored individually in buffered formalin to be fixed in preparation for paraffin embedding, sectioning, staining and analysis. The feet in buffered formalin were sent for processing, reading and plotting of the data (representative sections from mid group specimens were photographed).
The pathologists scored the feet for disease pathology in 4 areas: inflammation, pannus, cartilage and bone. FIG. 4 is a summary plot of the analysis performed cores of the 4 areas from the following groups: Control no disease; CIA disease: CIA Disease Enbrel daily for 14 days continued for 2 more weeks before termination: CEL-2000 and CEL-2001 groups (vaccinated on day 0 and 7) from study 1 (FIG. 1) and from study 2 (FIG. 2) 1× and 3×CEL-2000 vaccinated groups on day 0 and 7.

[3] = test system: vaccine peptides, collagen or citrulline or components used to make vaccines; conditions: mouse, in vivo
Procedure: The fifth study is for the CIA-model CEL-2000 vaccination serum antibodies (study 4.5). Antibody production to the vaccine peptides, collagen or citrulline or components used to make vaccines were evaluated in mouse sera from the previous two sets of studies. As expected, all sera recognized the bovine collagen molecule used to induce the disease. Neither the dose, amount of vaccine, nor timing of vaccination seemed to affect the titer or isotype. […] No antibodies were detected with reactivity to the citrulline using a citrulline fibrin peptide substrate in the ELISA. […] (data not shown) L.E.A.P.S. conjugates serum cytokine studies

cytokines = experiment: Serum cytokines after immunization (Ray Biotech protein microarrays); format: in vivo, A/J mice; conditions: unmodified J ICBL emulsified in Seppic ISA51
Procedure: The outcome of the immune response to vaccines is likely at least in part determined by the cytokines elicited by the immunization. Cytokines elicited by immunization of A/J mice with either the J, JgD or JH peptides emulsified in Seppic ISA51 were evaluated from serum obtained on days 3, 10 and 24 after immunization using Ray Biotech protein microarrays. […] IL12 is produced by DCs and macrophages and promotes the development of Th1 responses which are characterized by production of IL2 and IFN-γ. […] L.E.A.P.S. conjugates ex vivo studies

Row | Substance | progression of disease, as indicated by AI scores ([1]; study 4.1) | disease pathology compared statistically with untreated CIA mice [2] | histopathology: bone resorption [2] | histopathology: cartilage damage [2] | histopathology: inflammation [2] | histopathology: pannus [2] | effectiveness in the murine CIA model of RA relative to SEQ ID NO. 99 [1] | also measured
1 | Enbrel [reference compound] | slightly more effective than the vaccine | not statistically different from untreated CIA mice | minimal | mild | mild | minimal |  | antibodies to Enbrel in sera [3]: antibodies could be detected
2 | DGQEEKAGVVSTGLI-GGGGS-TGGKPGIAGFKGEQGPKGEP (DGQEEKAGVVSTGLIGGGGSTGGKPGIAGFKGEQGPKGEP; Completely synthesized peptide construct) [CEL-2001] |  |  |  |  |  |  | less effective | 
3 | DLLKNGERIEKVEGGGTGGKPGIAGFKGEQGPKGEP (Completely synthesized peptide construct) [CEL-2000, peptide J combined with the human type II collagen peptide 254-273] | limited the progression of disease | statistically had less disease pathology | less bone resorption in fewer digit joints | minimal | mild | minimal |  | AI scores, reduction compared with other conjugates ([1]; study 4.1, 33 nmoles, versus CEL-2001 or CEL-2002): reduced to a greater extent than was seen with other conjugates; progression of disease over the experimental period ([1]; study 4.2, 100 nmol dose (3× treatment) on days 0 and 7): appeared to limit the progression of disease throughout the experimental period; progression of arthritis disease compared with Enbrel ([1]; study 4.2, 2 doses of 33 or 100 nmol subcutaneously on days 0 and 7 or 0 and 14, Enbrel every other day for 28 days): at least as good as those of mice treated with Enbrel; Joint thickening, redness, immobilization of joints in a digit or total paw ([1]; study 4.2, each of the 4 paws): reduced; progression of disease, as indicated by reduced AI scores ([1]; study 4.2, treatment started when group score was 3.5): limited the progression of disease; duration of effect versus Enbrel ([2]; 2 vaccinations at 100 nmol, 28 day period): more lasting effect than the multiple Enbrel treatments; protection by all 4 histopathology criteria (group ranking) ([2]; 3× (100 nmol) on days 0 and 7, FIG. 4): best protected group (least diseased) by all 4 criteria
4 | TGGKPGIAGFKGEQGPKGEP ((254)..(273) Type II Collagen; listed as Homo sapiens) [CEL-2002] |  |  |  |  |  |  | less effective | 
5 | DLLKNGERIEKVEGGG [J] |  |  |  |  |  |  |  | most remarkable change in cytokine levels upon immunization (cytokines): reduction in IL10 levels
